{"source": "patent US20100041620A1", "about": "“METHODS FOR IMPROVING FRONTAL BRAIN BIOENERGETIC METABOLISM” (priority 2008, published 2010)", "key": {"[1]": {"test_system": "anterior cingulate cortex (ACC)", "test": "31P magnetic resonance spectroscopic imaging (3D-CSI, 4 Tesla) of phosphorus metabolites, anterior cingulate cortex", "format": "in vivo, human", "excerpt": "(§1) ^31P data were collected using a three-dimensional chemical shift imaging (3D-CSI) technique at 4 Tesla in healthy middle-aged individuals. The use of 3D-CSI at high field has several advantages over previous methods: (1) increased spectral dispersion, which allows for increased precision of metabolite quantification; (2) post-processing grid shifting that allows for 3D placement of voxels of interest; and (3) the ability to co-register voxel placement between baseline and post-treatment follow-up. High-energy metabolite peaks quantified in the present study include phosphocreatine (PCr), β-nucleoside triphosphate (NTP, ATP in brain), and inorganic phosphate (Pi). Phospholipid membrane metabolite peaks quantified include anabolites, phosphomonoesters (PME), including phosphoethanolamine (PE) and phosphocholine (PC), and catabolites, phosphodiesters (PDE), including glycerophosphoethanolamine (GPE) and glycerolphosphocholine (GPC). A region of interest approach was used to examine phosphorus metabolite levels in the anterior cingulate cortex (ACC), given the notable age-related decline in frontal brain metabolism and impairment of frontally-mediated cognitive functions. A comparison region placed in the parieto-occipital cortex (POC) was also evaluated. It was hypothesized that oral supplementation with citicoline would improve frontal bioenergetic metabolism via elevations in availability of high-energy phosphates, as well as alteration of membrane phospholipid turnover by providing additional membrane precursors.\n(§2) Subjects included sixteen neurologically and psychiatrically healthy adults (mean age=47.3±5.4 years; 8 females, 8 males). Trained research technicians administered a structured clinical psychiatric interview using the Structured Clinical Interview for DSM-IV (SCID). All subjects were free of Axis I diagnoses, neurological illness, severe medical problems, and psychoactive substance use.\n(§3) Subjects were randomly assigned to receive a six-week supply of either 500 mg (4 males and 4 females) or 2000 mg (4 males and 4 females) of Cognizin® Citicoline (Kyowa Hakko Kogyo Co., Ltd., JAPAN). Subjects were instructed to take one capsule every day (500 mg group) or four capsules every day in a single dose (2000 mg group) for six weeks. […] Magnetic resonance spectroscopy (MRS) was completed on all subjects in two imaging sessions: one prior to beginning treatment (baseline) and one after completing six weeks of treatment.\n(§4) All proton imaging was performed using the proton channel of the dual tuned open face proton-phosphorus TEM whole-head coil from Bioengineering Inc. (Minneapolis, Minn.) operating at a nominal frequency of 170.3 MHz. A 2D gradient-recalled echo imaging sequence (12 seconds duration) was used to acquire a single image in all three spatial dimensions (sagittal, coronal, axial) to quickly determine the patient's position and angle. High-contrast, T1-weighted sagittal, coronal images as well as T1 and T2-weighted transverse images of the entire brain were acquired using a three-dimensional, magnetization-prepared FLASH imaging sequence (3D-MP FLASH), allowing for clear segmentation between grey-matter, white-matter, and CSF, as well as clearly delineating between the different anatomical regions of interest. This approach was used to optimize ^31P-MRSI voxel positioning and volumetric correction in the regions of interest.\n(§5) Phosphorus MRSI was performed using the phosphorus channel of the dual tuned proton-phosphorus TEM whole-head coil from Bioengineering Inc. (Minneapolis, Minn.) operating at 68.9 MHz. Phosphorus MRSI data were recorded using a three-dimensional chemical shift imaging (3D-CSI) sequence (Garraux, Neuroimage 10:149-162, 1999). […]"}, "[2]": {"test_system": "parieto-occipital cortex (POC)", "test": "31P magnetic resonance spectroscopic imaging (3D-CSI, 4 Tesla) of phosphorus metabolites, parieto-occipital cortex comparison region", "format": "in vivo, human", "settings": "6 weeks oral citicoline, doses pooled, mean ± SD", "excerpt": "as §1, §2, §3, §4, §5"}, "[3]": {"settings": "six weeks of citicoline supplementation, decrease"}, "[4]": {"settings": "six weeks of citicoline supplementation, increase"}}, "data": [{"smiles": "C[N+](C)(C)CCOP(=O)(O)OP(=O)([O-])OC[C@H]1O[C@@H](n2ccc(N)nc2=O)[C@H](O)[C@@H]1O", "note": "[citicoline, cytidine 5′-diphosphocholine]", "values": [{"measurement": "PCr, metabolite ratio relative to the total 31P signal", "setting": "[1]; 6 weeks oral citicoline, 500 and 2000 mg/day groups pooled, mean ± SD, baseline .154 ± .019, p .02", "value": ".162 ± .015"}, {"measurement": "PCr/Pi", "setting": "[1]; 6 weeks oral citicoline, doses pooled, mean ± SD, baseline 2.17 ± .46, p .03", "value": "2.82 ± 1.04"}, {"measurement": "PC, metabolite ratio relative to the total 31P signal", "setting": "[1]; 6 weeks oral citicoline, doses pooled, mean ± SD, baseline .026 ± .010, p .02", "value": ".019 ± .008"}, {"measurement": "GPE, metabolite ratio relative to the total 31P signal", "setting": "[1]; 6 weeks oral citicoline, doses pooled, mean ± SD, baseline .039 ± .010, p .01", "value": ".030 ± .009"}, {"measurement": "PE, metabolite ratio relative to the total 31P signal", "setting": "[1]; 6 weeks oral citicoline, doses pooled, mean ± SD, baseline .043 ± .015, p .04", "value": ".054 ± .008"}, {"measurement": "GPC, metabolite ratio relative to the total 31P signal", "setting": "[1]; 6 weeks oral citicoline, doses pooled, mean ± SD, baseline .051 ± .015, ns", "value": ".047 ± .016"}, {"measurement": "β-NTP, metabolite ratio relative to the total 31P signal", "setting": "[1]; 6 weeks oral citicoline, doses pooled, mean ± SD, baseline .066 ± .012, p .05", "value": ".075 ± .014"}, {"measurement": "PME, metabolite ratio relative to the total 31P signal", "setting": "[1]; 6 weeks oral citicoline, doses pooled, mean ± SD, baseline .069 ± .016, ns", "value": ".073 ± .012"}, {"measurement": "Pi, metabolite ratio relative to the total 31P signal", "setting": "[1]; 6 weeks oral citicoline, doses pooled, mean ± SD, baseline .073 ± .012, p .15", "value": ".065 ± .022"}, {"measurement": "PDE, metabolite ratio relative to the total 31P signal", "setting": "[1]; 6 weeks oral citicoline, doses pooled, mean ± SD, baseline .183 ± .032, p .07", "value": ".154 ± .049"}, {"measurement": "decreased GPE, change from baseline", "setting": "[1]; [3]", "value": 23, "unit": "%"}, {"measurement": "decreased PC, change from baseline", "setting": "[1]; [3]", "value": 29, "unit": "%"}, {"measurement": "increased PCr/Pi, change from baseline", "setting": "[1]; six weeks of citicoline supplementation, doses pooled, increase", "value": 32, "unit": "%"}, {"measurement": "increased PCr, change from baseline", "setting": "[1]; [4]", "value": 7, "unit": "%"}, {"measurement": "increased PE, change from baseline", "setting": "[1]; [4]", "value": 26, "unit": "%"}, {"measurement": "increased β-NTP, change from baseline", "setting": "[1]; [4]", "value": 14, "unit": "%"}, {"measurement": "Pi, metabolite ratio relative to the total 31P signal", "setting": "[1]; six weeks, 2000 mg/day group, baseline 0.069±0.010, p=0.57", "value": "0.073±0.019"}, {"measurement": "PCr/Pi ratio", "setting": "[1]; six weeks, 2000 mg/day group, baseline 2.41±0.52, p=0.84", "value": "2.33±0.61"}, {"measurement": "increased PCr/Pi, change from baseline", "setting": "[1]; six weeks, low dose (500 mg), increase", "value": 66, "unit": "%"}, {"measurement": "decreased Pi, change from baseline", "setting": "[1]; six weeks, low dose only (500 mg), decrease", "value": 26, "unit": "%"}, {"measurement": "PCr/Pi", "setting": "[2]; baseline 2.30 ± .34, ns", "value": "2.38 ± .53"}, {"measurement": "PC, metabolite ratio relative to the total 31P signal", "setting": "[2]; baseline .023 ± .009, ns", "value": ".026 ± .012"}, {"measurement": "GPE, metabolite ratio relative to the total 31P signal", "setting": "[2]; baseline .034 ± .011, ns", "value": ".032 ± .014"}, {"measurement": "GPC, metabolite ratio relative to the total 31P signal", "setting": "[2]; baseline .047 ± .017, ns", "value": ".047 ± .010"}, {"measurement": "β-NTP, metabolite ratio relative to the total 31P signal", "setting": "[2]; baseline .063 ± .009, ns", "value": ".066 ± .010"}, {"measurement": "PE, metabolite ratio relative to the total 31P signal", "setting": "[2]; baseline .065 ± .009, ns", "value": ".058 ± .010"}, {"measurement": "Pi, metabolite ratio relative to the total 31P signal", "setting": "[2]; baseline .072 ± .010, ns", "value": ".075 ± .013"}, {"measurement": "PME, metabolite ratio relative to the total 31P signal", "setting": "[2]; baseline .088 ± .015, ns", "value": ".084 ± .011"}, {"measurement": "PCr, metabolite ratio relative to the total 31P signal", "setting": "[2]; baseline .164 ± .016, ns", "value": ".173 ± .015"}, {"measurement": "PDE, metabolite ratio relative to the total 31P signal", "setting": "[2]; baseline .165 ± .029, ns", "value": ".152 ± .030"}]}]}
